Read-outs that look alike come from different tables or passages of the source.

What all share (test): TGFα-shedding assay-based GPCR screening with chimeric Gα subunit proteins
What all share (format): cell-based

The target in experiment [1] is 348 GPCRs (Homo sapiens, UniProt P21554). As to conditions: read-out: % GPCR activation compared to TPA, CB1 (cannabinoid receptor 1); 10µM, Favipiravir 100μM.
The target in experiment [2] is T1, 348 GPCRs (Homo sapiens, UniProt P22888).
T1 construct: expressed in transfected cells; host or cells: HEK293A
The settings on record: 10µM, Favipiravir 100μM.

Experiment [3] concerns the target T2, 348 GPCRs (Homo sapiens, UniProt P48544).
T2 construct: expressed in transfected cells; host or cells: HEK293A
T2 sequence (P48544 1-419): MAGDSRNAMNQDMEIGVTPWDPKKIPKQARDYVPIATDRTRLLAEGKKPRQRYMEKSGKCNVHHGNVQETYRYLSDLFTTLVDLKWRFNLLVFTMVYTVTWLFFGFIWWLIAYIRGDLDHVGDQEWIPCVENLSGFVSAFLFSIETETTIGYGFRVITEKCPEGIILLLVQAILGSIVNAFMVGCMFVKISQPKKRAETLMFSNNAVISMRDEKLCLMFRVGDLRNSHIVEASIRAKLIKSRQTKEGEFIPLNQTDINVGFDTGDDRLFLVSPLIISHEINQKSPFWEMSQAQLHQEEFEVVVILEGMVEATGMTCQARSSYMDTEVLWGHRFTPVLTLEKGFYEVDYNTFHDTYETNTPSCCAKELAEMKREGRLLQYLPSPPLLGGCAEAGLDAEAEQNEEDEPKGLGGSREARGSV
As to conditions: 10µM, Favipiravir 100μM.

The target in experiment [4] is T3, 348 GPCRs (Homo sapiens, UniProt Q15391).
T3 construct: expressed in transfected cells; host or cells: HEK293A
T3 sequence (Q15391 1-338): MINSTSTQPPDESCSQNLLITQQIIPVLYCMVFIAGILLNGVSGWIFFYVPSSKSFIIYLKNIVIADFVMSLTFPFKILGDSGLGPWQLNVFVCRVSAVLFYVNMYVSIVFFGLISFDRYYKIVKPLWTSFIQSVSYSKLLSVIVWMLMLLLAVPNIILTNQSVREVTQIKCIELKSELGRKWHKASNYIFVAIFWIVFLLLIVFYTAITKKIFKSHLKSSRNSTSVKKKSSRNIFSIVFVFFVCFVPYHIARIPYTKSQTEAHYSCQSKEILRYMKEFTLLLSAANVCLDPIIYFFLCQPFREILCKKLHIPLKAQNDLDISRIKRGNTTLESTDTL

The target in experiment [5] is T4, 348 GPCRs (Homo sapiens, UniProt Q8IWK6).
T4 construct: expressed in transfected cells; host or cells: HEK293A
T4 sequence (Q8IWK6 34-1321): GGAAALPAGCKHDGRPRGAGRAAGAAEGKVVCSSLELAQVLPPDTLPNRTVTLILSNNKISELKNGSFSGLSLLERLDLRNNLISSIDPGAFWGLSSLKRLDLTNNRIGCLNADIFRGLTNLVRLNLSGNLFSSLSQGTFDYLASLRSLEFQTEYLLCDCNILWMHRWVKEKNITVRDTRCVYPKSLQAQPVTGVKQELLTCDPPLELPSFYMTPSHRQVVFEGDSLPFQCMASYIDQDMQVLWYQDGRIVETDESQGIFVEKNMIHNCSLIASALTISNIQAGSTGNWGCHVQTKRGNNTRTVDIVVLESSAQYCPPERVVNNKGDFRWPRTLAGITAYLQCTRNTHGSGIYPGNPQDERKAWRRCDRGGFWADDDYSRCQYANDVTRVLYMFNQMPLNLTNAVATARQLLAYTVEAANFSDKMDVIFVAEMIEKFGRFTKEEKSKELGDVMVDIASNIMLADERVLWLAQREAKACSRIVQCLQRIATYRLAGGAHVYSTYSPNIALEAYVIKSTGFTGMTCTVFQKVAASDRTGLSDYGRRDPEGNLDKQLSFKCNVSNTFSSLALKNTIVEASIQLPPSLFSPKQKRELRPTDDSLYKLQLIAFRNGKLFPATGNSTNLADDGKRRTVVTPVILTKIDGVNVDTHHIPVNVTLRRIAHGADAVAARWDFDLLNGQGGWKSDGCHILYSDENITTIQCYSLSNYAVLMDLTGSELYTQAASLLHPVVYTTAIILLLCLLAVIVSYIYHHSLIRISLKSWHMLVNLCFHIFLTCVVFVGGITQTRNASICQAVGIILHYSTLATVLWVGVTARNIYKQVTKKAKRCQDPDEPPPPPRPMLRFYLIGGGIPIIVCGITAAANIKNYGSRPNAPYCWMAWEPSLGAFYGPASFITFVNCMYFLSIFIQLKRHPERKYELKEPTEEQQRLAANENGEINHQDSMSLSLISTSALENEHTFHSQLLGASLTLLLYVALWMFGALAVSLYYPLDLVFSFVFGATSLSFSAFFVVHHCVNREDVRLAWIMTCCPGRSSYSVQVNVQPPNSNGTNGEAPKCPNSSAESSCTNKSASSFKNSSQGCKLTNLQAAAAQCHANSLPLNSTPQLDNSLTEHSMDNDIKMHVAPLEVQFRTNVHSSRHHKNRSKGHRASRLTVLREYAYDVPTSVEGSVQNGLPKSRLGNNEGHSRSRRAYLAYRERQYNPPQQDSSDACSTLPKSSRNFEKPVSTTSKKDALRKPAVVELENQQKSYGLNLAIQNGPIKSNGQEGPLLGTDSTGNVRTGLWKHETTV
As to conditions: 10µM, Favipiravir 100μM.

Experiment [6] concerns the target T5, 348 GPCRs (Homo sapiens, UniProt Q9UKP6).
T5 construct: expressed in transfected cells; host or cells: HEK293A
T5 sequence (Q9UKP6 1-389): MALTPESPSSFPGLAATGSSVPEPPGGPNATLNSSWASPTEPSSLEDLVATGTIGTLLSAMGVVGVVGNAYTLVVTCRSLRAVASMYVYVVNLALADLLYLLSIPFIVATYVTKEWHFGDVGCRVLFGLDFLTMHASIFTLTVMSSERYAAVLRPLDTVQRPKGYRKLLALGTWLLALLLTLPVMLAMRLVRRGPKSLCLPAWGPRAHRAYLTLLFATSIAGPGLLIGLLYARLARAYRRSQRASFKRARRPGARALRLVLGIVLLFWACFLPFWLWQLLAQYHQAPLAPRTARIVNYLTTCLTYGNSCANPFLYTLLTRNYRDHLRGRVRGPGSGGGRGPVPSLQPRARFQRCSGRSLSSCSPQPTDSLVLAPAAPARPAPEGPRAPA
The settings on record: 10µM, Favipiravir 100μM.

Where [7] appears, read: LHCGR (luteinizing hormone/choriogonadotropin receptor), read-out: % GPCR activation compared to TPA.
Setting [8] is: KCNJ5 (potassium inwardly rectifying channel, subfamily J, member 5), read-out: % GPCR activation compared to TPA.
Where [9] appears, read: GPR125 (Adhesion G Protein-Coupled Receptor A2 (ADGRA3)), read-out: % GPCR activation compared to TPA.
[10] abbreviates: UTS2R (urotensin 2 receptor), read-out: % GPCR activation compared to TPA.
[11] abbreviates: read-out: % GPCR activation compared to TPA, LHCGR (luteinizing hormone/choriogonadotropin receptor).
Setting [12] is: read-out: % GPCR activation compared to TPA, KCNJ5 (potassium inwardly rectifying channel, subfamily J, member 5).
[13] abbreviates: read-out: % GPCR activation compared to TPA, GPCR P2Y14 (purinergic receptor P2Y, G-protein coupled, 14).
The mark [14] stands for this setting: read-out: % GPCR activation compared to TPA, GPR125 (Adhesion G Protein-Coupled Receptor A2 (ADGRA3)).
[15] abbreviates: read-out: % GPCR activation compared to TPA, UTS2R (urotensin 2 receptor).
Where [16] appears, read: GPCR P2Y14 (purinergic receptor P2Y, G-protein coupled, 14), read-out: % GPCR activation compared to TPA.

T1 sequence (P22888 27-699): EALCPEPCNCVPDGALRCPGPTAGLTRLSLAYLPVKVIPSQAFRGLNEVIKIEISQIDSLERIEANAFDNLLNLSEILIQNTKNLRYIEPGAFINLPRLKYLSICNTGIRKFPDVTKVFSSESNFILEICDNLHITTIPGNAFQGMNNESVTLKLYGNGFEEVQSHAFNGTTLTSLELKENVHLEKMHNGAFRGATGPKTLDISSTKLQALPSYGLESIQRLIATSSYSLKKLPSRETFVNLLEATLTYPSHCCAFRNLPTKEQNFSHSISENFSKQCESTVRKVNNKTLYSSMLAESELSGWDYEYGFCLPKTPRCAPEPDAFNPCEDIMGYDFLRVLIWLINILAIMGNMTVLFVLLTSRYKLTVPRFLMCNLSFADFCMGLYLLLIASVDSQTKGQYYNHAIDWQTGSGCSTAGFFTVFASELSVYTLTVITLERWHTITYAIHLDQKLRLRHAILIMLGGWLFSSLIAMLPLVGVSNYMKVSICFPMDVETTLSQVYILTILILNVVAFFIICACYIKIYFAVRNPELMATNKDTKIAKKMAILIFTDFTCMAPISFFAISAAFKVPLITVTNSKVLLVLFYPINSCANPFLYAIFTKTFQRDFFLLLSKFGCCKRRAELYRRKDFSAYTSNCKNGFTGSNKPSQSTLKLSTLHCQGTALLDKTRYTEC
Chain of 348 GPCRs (Homo sapiens, UniProt P21554) (P21554 whole entry): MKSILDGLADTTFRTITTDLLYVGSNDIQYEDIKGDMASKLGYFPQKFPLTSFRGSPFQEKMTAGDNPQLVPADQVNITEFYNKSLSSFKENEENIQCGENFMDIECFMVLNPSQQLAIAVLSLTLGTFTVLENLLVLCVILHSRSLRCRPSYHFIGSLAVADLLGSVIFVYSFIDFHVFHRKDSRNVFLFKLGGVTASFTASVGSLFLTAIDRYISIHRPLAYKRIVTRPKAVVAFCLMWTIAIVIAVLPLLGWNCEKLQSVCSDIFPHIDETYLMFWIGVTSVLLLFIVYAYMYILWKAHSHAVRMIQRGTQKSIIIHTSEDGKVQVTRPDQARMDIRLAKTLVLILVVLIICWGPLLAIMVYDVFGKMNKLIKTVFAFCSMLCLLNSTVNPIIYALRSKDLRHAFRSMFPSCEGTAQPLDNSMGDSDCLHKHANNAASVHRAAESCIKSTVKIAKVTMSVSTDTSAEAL

Consider `NC(=O)c1nc(F)cnc1O` [favipiravir, 6-fluoro-3-hydroxy-2-pyrazinecarboxamide], for which the activation at 100 µM was 1.89% in experiment [1]; 0.315% in experiment [2] (setting [7]); -1.78% in experiment [3] (setting [8]); 5.36% in experiment [4] (GPCR P2Y14 (purinergic receptor P2Y, G-protein coupled, 14), 100μM, read-out: % GPCR activation compared to TPA). Also, the activation at 10 µM in experiment [5] (setting [9]) was -1.96%; in experiment [6] (setting [10]) it was -4.11%.

As for `CC(C)OC(=O)[C@H](C)N[P@](=O)(OC[C@H]1O[C@@H](n2ccc(=O)[nH]c2=O)[C@](C)(F)[C@@H]1O)Oc1ccccc1` [sofosbuvir], the values for the activation at 100 µM in experiment [1], in experiment [2] (setting [11]) and in experiment [3] (setting [12]) were -1.13%, 1.92% and -2.66%, respectively. Besides, the values for the activation at 10 µM in experiment [4] (setting [13]), in experiment [5] (setting [14]) and in experiment [6] (setting [15]) were 0.966%, 0.926% and -2.85%, respectively.

Take `CCC(CC)COC(=O)[C@H](C)N[P@](=O)(OC[C@H]1O[C@@](C#N)(c2ccc3c(N)ncnn23)[C@H](O)[C@@H]1O)Oc1ccccc1` [remdesivir]: the activation at 100 µM in experiment [1] was -4.06%; in experiment [2] (setting [11]), 0.234%; in experiment [3] (setting [12]), 1.55%. Also, the activation at 10 µM in experiment [4] (setting [13]) is 8.52%; in experiment [5] (setting [14]) it was -0.226%; in experiment [6] (setting [15]) it was 46.9%.

In the case of `N#C[C@@]1(c2ccc3c(N)ncnn23)O[C@H](CO)[C@@H](O)[C@H]1O` [GS441524], the activation at 100 µM in experiment [1] was 0.0409%; in experiment [2] (setting [7]), 0.261%; in experiment [3] (setting [8]), 1.89%. Further, the activation at 10 µM in experiment [4] (setting [16]) was 4.97%; in experiment [5] (setting [9]), -0.689%; in experiment [6] (setting [10]), -11.4%.

Turning to `CC(C)C(=O)OC[C@H]1O[C@@H](n2ccc(NO)nc2=O)[C@H](O)[C@@H]1O` [molnupiravir], the activation at 100 µM was -1.3% in experiment [1], -0.797% in experiment [2] (setting [7]) and -0.841% in experiment [3] (setting [8]). The activation at 10 µM in experiment [4] (setting [16]) was 0.0147%; in experiment [5] (setting [9]), -0.998%; in experiment [6] (setting [10]), -8.44%.

The values are drawn from publication PMC10175918 (Communications Biology, 2023).
